Data as given in patent US11458123B2 (Arvinas, Inc., priority 2016, dated 2022).

Test system: tau protein
Assay: Tau protein in vitro degradation assay (Western blot, Tau-13 antibody)
Format: cell-based, human
Conditions: SK-N-SH cells, 72 hours of incubation; for Degradation activity* (highest amount of degradation observed at any dosage; tau protein remaining) / Degradation activity (tau protein remaining; highest amount of degradation observed at any dosage): tested at 300 nM, 100 nM, 33 nM and 11 nM, Western blot, Tau-13 antibody
Summary of the method: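 SK-N-SH cells, seeded ≥18 h beforehand, were incubated 72 h with tau PROTACs at 1000, 300 and 100 nM or at 300, 100, 33 and 11 nM. Lysates in protease-inhibitor buffer were resolved by SDS-PAGE; tau quantified by Western blot with Tau-13 antibody recognising all human tau forms.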

| SMILES | Degradation activity* (highest amount of degradation observed at any dosage; tau protein remaining) | Degradation activity (tau protein remaining; highest amount of degradation observed at any dosage) | further results |
| --- | --- | --- | --- |
| Cn1c2ccncc2c2ccc(-c3cnc(O[C@H]4C[C@H](OCCCOCCCN5CC(Oc6ccc7c(c6)C(=O)N(C6CCC(=O)NC6=O)C7=O)C5)C4)c(C(F)(F)F)c3)cc21 (stereo partly drawn) [Compound 105, 2-(2,6-dioxopiperidin-3-yl)-5-((1-(3-(3-((1r,3r)-3-((5-(5-methyl-5H-pyrido[4,3-b]indol-7-yl)-3-(trifluoromethyl)pyridin-2-yl)oxy)cyclobutoxy)propoxy)propyl)azetidin-3-yl)oxy)isoindoline-1,3-dione] | A (≤50% tau protein remaining after 72 hours of incubation with the test compound) | – | – |
| Cc1ncsc1-c1ccc(CNC(=O)[C@@H]2C[C@@H](O)CN2C(=O)[C@H](C(C)C)N2Cc3ccccc3C2=O)c(OCCOCCOc2ccc(-c3ccc4c(c3)[nH]c3ccncc34)cn2)c1 [Compound 186, (2S,4R)—N-(2-(2-(2-((5-(5H-pyrido[4,3-b]indol-7-yl)pyridin-2-yl)oxy)ethoxy)ethoxy)-4-(4-methylthiazol-5-yl)benzyl)-4-hydroxy-1-((S)-3-methyl-2-(1-oxoisoindolin-2-yl)butanoyl)pyrrolidine-2-carboxamide] | – | B (≤80% and >50% tau protein remaining after 72 hours of incubation with the test compound) | – |
| Cn1c2ccncc2c2ccc(-c3cnc(O[C@H]4C[C@H](OC5CCN(CCCCCOc6ccc7c(c6)C(=O)N(C6CCC(=O)NC6=O)C7=O)CC5)C4)c(C(F)(F)F)c3)cc21 (stereo partly drawn) [Compound 123, 2-(2,6-dioxopiperidin-3-yl)-5-((5-(4-((1r,3r)-3-((5-(5-methyl-5H-pyrido[4,3-b]indol-7-yl)-3-(trifluoromethyl)pyridin-2-yl)oxy)cyclobutoxy)piperidin-1-yl)pentyl)oxy)isoindoline-1,3-dione] | C (>80% tau protein remaining after 72 hours of incubation with the test compound) | – | – |
| O=C1CCC(N2C(=O)c3ccc(N4CC(OCCCOCCCO[C@H]5C[C@H](Oc6ccc(-c7ccc8c(c7)[nH]c7ccncc78)cn6)C5)C4)cc3C2=O)C(=O)N1 (stereo partly drawn) [Compound 182, 5-(3-(3-(3-((1r,3r)-3-((5-(5H-pyrido[4,3-b]indol-7-yl)pyridin-2-yl)oxy)cyclobutoxy)propoxy)propoxy)azetidin-1-yl)-2-(2,6-dioxopiperidin-3-yl)isoindoline-1,3-dione] | – | A (≤50% tau protein remaining after 72 hours of incubation with the test compound) | – |
| Cn1c2ccncc2c2ccc(-c3ccc(O[C@H]4C[C@@H](Oc5ccc(CCCCCCOc6ccc7c(c6)C(=O)N(C6CCC(=O)NC6=O)C7=O)cn5)C4)nc3)cc21 (stereo partly drawn) [Compound 145, 2-(2,6-dioxopiperidin-3-yl)-5-(6-(6-((1s,3s)-3-(5-(5-methyl-5H-pyrido[4,3-b]indol-7-yl)pyridin-2-yloxy)cyclobutoxy)pyridin-3-yl)hexyloxy)isoindoline-1,3-dione] | C (>80% tau protein remaining after 72 hours of incubation with the test compound) | – | – |
| Cn1c2ccncc2c2ccc(-c3ccc(N4CC(OCCOCCOCCOCCOc5ccc6c(c5)C(=O)N(C5CCC(=O)NC5=O)C6=O)C4)nc3)cc21 (stereo not drawn) [Compound 208, 2-(2,6-dioxopiperidin-3-yl)-5-(2-(2-(2-(2-((1-(5-(5-methyl-5H-pyrido[4,3-b]indol-7-yl)pyridin-2-yl)azetidin-3-yl)oxy)ethoxy)ethoxy)ethoxy)ethoxy)isoindoline-1,3-dione] | – | A (≤50% tau protein remaining after 72 hours of incubation with the test compound) | – |
| Cn1c2ccncc2c2ccc(-c3ccc(O[C@H]4C[C@H](N(C)C5CC6(C5)CN(C(=O)CCCCOc5ccc7c(c5)C(=O)N(C5CCC(=O)NC5=O)C7=O)C6)C4)nc3)cc21 (stereo partly drawn) [Compound 137, 2-(2,6-dioxopiperidin-3-yl)-5-((5-(6-(methyl((1r,3r)-3-((5-(5-methyl-5H-pyrido[4,3-b]indol-7-yl)pyridin-2-yl)oxy)cyclobutyl)amino)-2-azaspiro[3.3]heptan-2-yl)-5-oxopentyl)oxy)isoindoline-1,3-dione] | C (>80% tau protein remaining after 72 hours of incubation with the test compound) | – | – |
| Cn1c2ccncc2c2c(F)c(F)c(-c3ccc(O[C@H]4C[C@H](OCCCOCCCOC5CN(c6ccc7c(c6)C(=O)N(C6CCC(=O)NC6=O)C7=O)C5)C4)nc3)cc21 (stereo partly drawn) [Compound 176, 5-(3-(3-(3-((1r,3r)-3-((5-(8,9-difluoro-5-methyl-5H-pyrido[4,3-b]indol-7-yl)pyridin-2-yl)oxy)cyclobutoxy)propoxy)propoxy)azetidin-1-yl)-2-(2,6-dioxopiperidin-3-yl)isoindoline-1,3-dione] | – | C (>80% tau protein remaining after 72 hours of incubation with the test compound) | – |
| Cc1ncsc1-c1ccc(CNC(=O)[C@@H]2C[C@@H](O)CN2C(=O)[C@@H](NC(=O)COCCOCCOc2ccc(-c3ccc4c(c3)[nH]c3ccncc34)cn2)C(C)(C)C)cc1 [Compound 5, (2S,4R)-1-((S)-2-(2-(2-(2-(5-(5H-pyrido[4,3-b]indol-7-yl)pyridin-2-yloxy)ethoxy)ethoxy)acetamido)-3,3-dimethylbutanoyl)-4-hydroxy-N-(4-(4-methylthiazol-5-yl)benzyl)pyrrolidine-2-carboxamide] | – | – | Activity* (highest amount of degradation observed at any dosage, as tau protein remaining) (tested at 1000 nM, 300 nM and 100 nM): C (>80% tau protein remaining after 72 hours of incubation with the test compound) |
| Cn1c2ccncc2c2ccc(-c3ccc(O[C@H]4C[C@H](OCCCCOCCCCCOc5ccc6c(c5)C(=O)N(C5CCC(=O)NC5=O)C6=O)C4)nc3)cc21 (stereo partly drawn) [Compound 114, 2-(2,6-dioxopiperidin-3-yl)-5-((5-(4-((1r,3r)-3-((5-(5-methyl-5H-pyrido[4,3-b]indol-7-yl)pyridin-2-yl)oxy)cyclobutoxy)butoxy)pentyl)oxy)isoindoline-1,3-dione] | C (>80% tau protein remaining after 72 hours of incubation with the test compound) | – | – |
| Cn1c2ccncc2c2c(F)c(F)c(-c3ccc(OCCOCCOCCOCCOCCOc4ccc5c(c4)C(=O)N(C4CCC(=O)NC4=O)C5=O)nc3)cc21 (stereo not drawn) [Compound 112, 5-((14-((5-(8,9-difluoro-5-methyl-5H-pyrido[4,3-b]indol-7-yl)pyridin-2-yl)oxy)-3,6,9,12-tetraoxatetradecyl)oxy)-2-(2,6-dioxopiperidin-3-yl)isoindoline-1,3-dione] | A (≤50% tau protein remaining after 72 hours of incubation with the test compound) | – | – |
| O=C1CCC(N2C(=O)c3ccc(OCCCCC#Cc4ccc(O[C@H]5C[C@H](Oc6ccc(-c7ccc8c(c7)[nH]c7ccncc78)cn6)C5)cn4)cc3C2=O)C(=O)N1 (stereo partly drawn) [Compound 172, 5-((6-(5-((1r,3r)-3-((5-(5H-pyrido[4,3-b]indol-7-yl)pyridin-2-yl)oxy)cyclobutoxy)pyridin-2-yl)hex-5-yn-1-yl)oxy)-2-(2,6-dioxopiperidin-3-yl)isoindoline-1,3-dione] | – | C (>80% tau protein remaining after 72 hours of incubation with the test compound) | – |
